PMC4780071, “Discovery of a Biological Mechanism of Active Transport through the Tympanic Membrane to the Middle Ear” (Scientific Reports, 2016)

How the values were obtained:
[1] = tested on: tympanic membrane (TM) of rats with active bacterial OM; test: Comparative TM transit of individual phage clones in vivo (plaque assay of ME fluid); set-up: species or system rat (male Sprague-Dawley), NTHi-induced OM; conditions: for TM-transit rate into the ME compared with WT phage and the other clones: phage clone displaying the peptide, 1 × 10^10 phage particles on one TM for 1 hr, six rats, plaque assay of ME fluid; for phage particles in the ME after 1 hr incubation of the peptide-phage on the TM: 10^10 PFUs applied, mean of six animals
Procedure: (§1) All animal experiments were performed in strict accordance to the Guide for the Care and Use of Laboratory Animals of the National Institutes of Health (NIH) and the policies of the Veterans Affairs San Diego Healthcare Systems, CA. Experiments were carried out in strict accordance with an approved Institutional Animal Care and Use Committee (IACUC) protocol. Male Sprague–Dawley rats were purchased from The Jackson Laboratory. The animals were anesthetized with an intraperitoneal injection of 1.0–1.5 ml per 200–300 g bodyweight of rodent cocktail (40 mg/Kg Ketamine, 10 mg/Kg Xylasine, and 0.75 mg/Kg Acepromazine). The skin of the neck was shaved and treated with Povidone antiseptic solution. OM was induced by infecting the ME with nontypeable Haemophilus influenzae (NTHi) in a laboratory setting by surgically exposing the bulla via a ventral approach through a vertical midline incision made in the neck. A 25-gauge needle was used to fenestrate the bulla and inject ~50 μL saline solution containing 10^4 CFU/mL NTHi bacteria strain 3655 (biotype II, originally isolated from the ME of a pediatric OM patient). Following the inoculation, the opening was closed and incision was stapled. The TMs were visually confirmed to be intact after surgery and the rats were given Lactated Ringer’s solution and buprenorphine subcutaneously postoperatively. For in vivo phage display experiments, rats were used at two days post NTHi inoculation. The ears were examined otoscopically at this time to confirm signs of active infection and the presence of fluid in the ME cavity.
After three or ten rounds of subtraction/selection in strategies 1 and 2 respectively, single blue plaques were selected at random for preparation of purified stocks and sequencing as recommended by the manufacturer (New England Biolabs, Cambridge, MA, USA). Phage transit efficiency was determined by incubating 1 × 10^10 PFUs (plaque-forming units) of specific phage over the TMs of rats in vivo for 1 hr. At least six animals per time point were used. Incubation, washings, and elution conditions were performed as above. The phage transiting efficiency was determined by comparing the number of plaque-forming phage recovered from the ME fluid (output) by the number of plaque-forming phage in the input (TM side).
We quantified the rate of TM transit into the ME for all peptides identified by Strategy 1 (Fig. 3A) and those from Strategy 2 (Fig. 3B) that appeared at a frequency of three or more in our sequenced sample (Tables 1 and 2). Individual phage clones were amplified and 1 × 10^10 phage particles were applied onto one TM of six anesthetized rats for 1 hr. The number of phage particles recovered from the ME was then compared to that observed for WT (untargeted) phage. […] On the other hand, the peptide sequence of BPT-4 was clearly distinct in the phylogeny analysis.

[2] = tested on: healthy (uninfected) tympanic membrane; test: TMT-3 phage transport across TMs of uninfected MEs; assay type: in vivo, rat; conditions: n = 6, data not shown
Source text: To establish the specificity of translocation, we assessed whether a synthetic TMT-3 peptide would interfere with internalization of corresponding peptide-bearing phage into the ME. […] In addition, TMT-3 phage was applied onto the TMs of uninfected MEs (n = 6). We observed that for healthy TMs, phage transport into the ME was quite limited when compared to the infected TM (data not shown). This could be attributed to limitations in efficient phage transport when fluid is not present on the other side of the TM. Alternatively, it is possible that the transit mechanism employed is only present in infected TMs.

[3] = tested on: tympanic membrane (TM) of rats with OM; test: Transport kinetics and saturation of TMT-3 phage in vivo; set-up: species or system rat (male Sprague-Dawley), NTHi-induced OM; conditions: for phage recovery from the ME: at least six animals per time point
Procedure: as §1
The phage peptide with one of the highest transport capacities measured above TMT-3 SADSTKTTHLTL, was selected for further transport specificity, kinetics and competitive binding assays. To evaluate the kinetics of transport of the TMT-3 single phage clone, a TMT-3 phage preparation was incubated on the TM over a 1, 2 or 4 hr time period at 1 × 10^10 PFU concentration. At least six animals per time point were used. Incubation, washing, and elution conditions were performed as above in rats with OM. The level of phage transport was evaluated by determining the titer (PFUs) of TMT-3 phage present in the ME fluid. To assess transport saturation, the recovery of TMT-3 phage from the ME was compared following application of 10^10 versus 10^12 phage particles to the TM for 1 hr. The corresponding free peptide SHSADSTKTTHLTLGGG was synthesized by Genscript (Piscataway, NJ, USA) in addition to an untargeted randomized control peptide SHDLSTSATLTHTKGGG (Genscript, Piscataway, NJ, USA) at purity >95%. All peptides were reconstituted in PBS pH, 7.2. For the competition assay TMT-3 phage application to the TM was performed at titer of 10^10 PFUs, as above. However, 1 μM of free peptide was included with the phage.

[4] = tested on: TMs of ex vivo MEs from rats undergoing OM; test: Ex vivo ME transport: dependence on time after death and temperature; set-up: species or system rat; conditions: for phage recovery through ex vivo TMs: warmed to 37 °C, 1 hr with phage
Procedure: In order to learn more about the pharmacokinetics mechanisms of transport, we tested the effect of varying metabolism or temperature on transport rates. […] MEs were removed intact from deeply anesthetized rats undergoing OM as described above. […] Translocation is also temperature dependent. […] It is well known that endocytosis is inhibited at 4 °C[36][37].

Sequence	TM-transit rate into the ME compared with WT phage and the other clones [1]	phage particles in the ME after 1 hr incubation of the peptide-phage on the TM ([1]; 1 hr, rats with OM)	further results
SDDSRPIAQFAI [TMT-5]	highest rates of transport		
TFNPPPPQMPST [BPT-4]	highest rates of transport	more than 2 × 10^3 phage particles	
DVGAGRWFSDNG [TMT-4]	highest rates of transport	more than 2 × 10^3 phage particles	
SADSTKTTHLTL [TMT-3, transport tests used the phage clone]	highest rates of transport	more than 2 × 10^3 phage particles	phage transport into the ME through healthy TMs compared to the infected TM [2]: quite limited; dependence of phage recovery on time on the TM ([3]; 1, 2 and 4 hrs of contact with the infected TM, 1 × 10^10 PFU): exponential increase; dependence of phage recovery on the amount applied (saturation) ([3]; 10^10 versus 10^12 phage particles applied to the TM for 1 hr): increased proportionally with concentration; phage recovery from the ME ([3]; 1 hr of contact with the infected TM, 1 × 10^10 PFU): approximately 10^4 phage particles; phage recovery from the ME ([3]; 4 hrs of contact with the infected TM, 1 × 10^10 PFU): ~10^6 phage particles; recovery from the ME among the six positive phage clones ([1]; 10^10 PFUs, 1 hr, rats with OM): greatest recovery from the ME; ME recovery of phage ex vivo ([4]; 4 °C, 1 hr exposure of the TM to 10^10 PFUs): severely compromised; phage recovery through ex vivo TMs ([4]; TMs stored 12 hrs postmortem at 4 °C): No recovery; phage recovery through ex vivo TMs ([4]; TMs stored 24 hrs postmortem at 4 °C): No recovery
THPSTKVPGTPA [BPT-3]	highest rates of transport	more than 2 × 10^3 phage particles	
TLSPKMPGGGYW [TMT-2]	highest rates of transport	more than 2 × 10^3 phage particles	
